These results are taken from BindingDB's records for doi:10.1021/jm200304y (Kyoto University, 2011).

Bounds are passed on as bounds.

The term IC50 denotes the concentration at which inhibition is half-maximal.

A short description of this test: Inhibition of SREBP2 activation expressed in CHO-K1 cells co-transfected with pSRE-Luc plasmid assessed as inhibition of luciferase expression after 20 hrs by luciferase reporter gene assay.
As for `CCCc1cc(-c2nc(-c3ccc(OC(=O)c4ccccc4)cc3)cs2)ccn1`, the IC50 is 7.7 µM.

Consider `CCCc1cc(-c2nc(-c3ccc(NS(=O)(=O)c4cccs4)cc3)cs2)ccn1`, for which the IC50 was 0.9 µM. With `CCCc1cc(-c2nc(-c3ccc(NS(=O)(=O)c4ccc(C)cc4)cc3)cs2)ccn1` the figure was 2.3 µM; with `CCc1cc(-c2nc(-c3ccc(C)cc3)cs2)ccn1`, 6.8 µM. On to `CCCc1cc(-c2nc(-c3cccs3)cs2)ccn1`, for which the 50% inhibitory concentration (IC50) amounted to 14.7 µM. With `CCCc1cc(-c2nc(-c3ccc(OC)cc3)cs2)ccn1` the figure was 13 µM; with `CCCc1cc(-c2nc(-c3cccc(O)c3)cs2)ccn1`, 9.5 µM; with `CCCc1cc(-c2nc(-c3ccccc3OC)cs2)ccn1`, 3.2 µM. In the case of `CCCc1cc(-c2nc(-c3ccc(C)cc3)cs2)ccn1` [SMR000221636], the IC50 worked out at 5.6 µM. Take `CCCc1cc(-c2nc(-c3ccc(N)cc3)cs2)ccn1`: the IC50 was 8.6 µM.

Consider `Cc1ccc(-c2csc(-c3ccccc3)n2)cc1`, for which the IC50 is 18.6 µM. Regarding `CCCc1cc(-c2nc(-c3ccc(Cl)cc3)cs2)ccn1` [SMR000177579], the IC50 was 10.7 µM.

Consider `CCCc1cc(-c2nc(-c3ccc(NCc4ccccc4)cc3)cs2)ccn1`, for which the IC50 is 3 µM. With `CCCc1cc(-c2nc(-c3ccc(Br)cc3)cs2)ccn1` the figure was 9.8 µM. `C[C@H](CCCC(C)(C)O)[C@H]1CC[C@H]2[C@@H]3CC=C4C[C@@H](O)CC[C@]4(C)[C@H]3CC[C@]12C` [(1S,2R,5S,10S,11S,14R,15R)-14-[(2R)-6-hydroxy-6-methylheptan-2-yl]-2,15-dimethyltetracyclo[8.7.0.0^{2,7}.0^{11,15}]heptadec-7-en-5-ol]: the IC50 was determined as 0.3 µM.

With `CCCc1cc(-c2nc(-c3ccc(O)cc3)cs2)ccn1`, the IC50 came out at 9.6 µM.

Turning to `CCCc1cc(-c2nc(-c3ccc(NCC4CC4)cc3)cs2)ccn1`, the IC50 amounted to 4.9 µM.

For the molecule `CCCc1cc(-c2nc(-c3ccc(NC(=O)OC(C)(C)C)cc3)cs2)ccn1`, the IC50 is 1.9 µM. With `CCCc1cc(-c2nc(-c3ccccc3O)cs2)ccn1` the figure was 14.4 µM; with `CCCc1cc(-c2nc(-c3ccccc3)cs2)ccn1`, 23 µM; with `CCCc1cc(-c2nc(-c3ccc(NC(C)=O)cc3)cs2)ccn1`, 7.1 µM. On to `Cc1ccc(-c2csc(-c3ccncc3)n2)cc1`, for which the IC50 is more than 30 µM.

Take `CCCc1cc(-c2ccc(-c3ccc(C)cc3)cc2)ccn1`: the IC50 was more than 30 µM.

`CCCc1cc(-c2nc(-c3cccc(OC)c3)cs2)ccn1`: the IC50 was 10.2 µM. Take `CCCc1cc(-c2nc(-c3ccc(NS(C)(=O)=O)cc3)cs2)ccn1`: the IC50 amounted to 0.7 µM. On to `CCCc1cc(-c2nc(-c3ccc(F)cc3)cs2)ccn1`, for which the IC50 was 12.4 µM. With `CCCc1cc(-c2nc(-c3ccc(NC(C)C)cc3)cs2)ccn1` the figure was 2.8 µM.
